Here are results for 25 molecules from BindingDB's records for doi:10.1016/j.bmc.2021.116161 (University of Nantes, 2021).

A value given as a limit tells only on which side of the number the result lay.

A short description of the first test: Inhibition of IL-15 in mouse 32Dbeta cells assessed as decrease in cell growth in presence of RLI incubated for 30 mins followed by RLI addition and measured after 2.5 days by alamar blue assay. Background: Alamar Blue is a resazurin reagent that responds to reducing activity.
The term IC50 denotes the concentration that gives 50% inhibition. Regarding `Cn1c(Cc2nn(C)c(=O)c3ccccc23)nnc1SCC(=O)Nc1ccc(Cl)cc1Cl`, the half-inhibitory concentration (IC50) was determined as 22.5 µM.

Take `Cn1c(Cc2nn(C)c(=O)c3ccccc23)nnc1SCCCCCCCC(=O)Nc1ccc(Cl)cc1Cl`: the IC50 is 2.2 µM.

As to `CCOC(CCn1c(Cc2nn(C)c(=O)c3ccccc23)nnc1SCC(=O)Nc1ccc(Cl)cc1Cl)OCC`, the IC50 was greater than 30 µM.

As to `Cn1nc(Cc2nnc(SCC(=O)Nc3ccc(Cl)cc3Cl)n2CCC=O)c2ccccc2c1=O`, the IC50 came out at 6 µM.

Turning to `Cn1nc(Cc2nnc(SCC(=O)Nc3ccc(Cl)cc3Cl)n2CCCO)c2ccccc2c1=O`, the IC50 was greater than 30 µM.

As to `Cn1nc(Cc2nnc(SCC(=O)Nc3ccc(Cl)cc3Cl)n2CCC(=O)O)c2ccccc2c1=O`, the IC50 was greater than 30 µM.

Regarding `Cn1c(Cc2nn(CCC3OCCO3)c(=O)c3ccccc23)nnc1SCC(=O)Nc1ccc(Cl)cc1Cl`, the IC50 is greater than 30 µM.

Consider `Cn1c(Cc2nn(CCC=O)c(=O)c3ccccc23)nnc1SCC(=O)Nc1ccc(Cl)cc1Cl`, for which the 50% inhibitory concentration (IC50) was 30 µM.

As to `Cn1c(Cc2nn(CCCO)c(=O)c3ccccc23)nnc1SCC(=O)Nc1ccc(Cl)cc1Cl`, the IC50 was greater than 30 µM.

For `Cn1c(Cc2nn(CCC(=O)O)c(=O)c3ccccc23)nnc1SCC(=O)Nc1ccc(Cl)cc1Cl`, the half-maximal inhibitory concentration (IC50) is greater than 30 µM.

`CN(C)CCCn1nc(Cc2nnc(SCC(=O)Nc3ccc(Cl)cc3Cl)n2C)c2ccccc2c1=O`: the IC50 turned out to be 18.8 µM.

For the molecule `CCOC(CCn1c(Cc2nn(C)c(=O)c3ccccc23)nnc1SCCCCCCCC(=O)Nc1ccc(Cl)cc1Cl)OCC`, the concentration for half-maximal inhibition (IC50) is 12.1 µM.

In the case of `Cn1nc(Cc2nnc(SCCCCCCCC(=O)Nc3ccc(Cl)cc3Cl)n2CCC=O)c2ccccc2c1=O`, the IC50 was found to be 2.5 µM.

For `Cn1nc(Cc2nnc(SCCCCCCCC(=O)Nc3ccc(Cl)cc3Cl)[nH]2)c2ccccc2c1=O`, the IC50 was 1.1 µM.

Regarding `Cn1nc(Cc2nnc(SCCCCCCCC(=O)Nc3ccc(Cl)cc3Cl)n2CCCO[Si](C)(C)C(C)(C)C)c2ccccc2c1=O`, the IC50 was greater than 30 µM.

For `Cn1nc(Cc2nnc(SCCCCCCCC(=O)Nc3ccc(Cl)cc3Cl)n2CCCO)c2ccccc2c1=O`, the IC50 is greater than 30 µM.

Turning to `Cn1nc(Cc2nnc(SCCCCCCCC(=O)Nc3ccc(Cl)cc3Cl)n2CCC(=O)O)c2ccccc2c1=O`, the IC50 was greater than 30 µM.

`CN(C)CCCn1c(Cc2nn(C)c(=O)c3ccccc23)nnc1SCCCCCCCC(=O)Nc1ccc(Cl)cc1Cl`: the IC50 was 3.7 µM.

On to `Cn1c(Cc2nn(CCCO[Si](C)(C)C(C)(C)C)c(=O)c3ccccc23)nnc1SCCCCCCCC(=O)Nc1ccc(Cl)cc1Cl`, for which the IC50 is greater than 30 µM.

For the molecule `Cn1c(Cc2nn(CCC=O)c(=O)c3ccccc23)nnc1SCCCCCCCC(=O)Nc1ccc(Cl)cc1Cl`, the IC50 stood at 8.9 µM.

Consider `Cn1c(Cc2nn(CCCO)c(=O)c3ccccc23)nnc1SCCCCCCCC(=O)Nc1ccc(Cl)cc1Cl`, for which the IC50 was greater than 30 µM.

With `Cn1c(Cc2nn(CCC(=O)O)c(=O)c3ccccc23)nnc1SCCCCCCCC(=O)Nc1ccc(Cl)cc1Cl`, the IC50 is greater than 30 µM.

Take `CN(C)CCCn1nc(Cc2nnc(SCCCCCCCC(=O)Nc3ccc(Cl)cc3Cl)n2C)c2ccccc2c1=O`: the IC50 came out at 2.3 µM.

For the molecule `Cn1c(Cc2n[nH]c(=O)c3ccccc23)nnc1SCCCCCCCC(=O)Nc1ccc(Cl)cc1Cl`, the IC50 was greater than 30 µM.

`Cn1c(Cc2nn(C)c(=O)c3ccccc23)nnc1SCCCCCCCC(=O)Nc1ccc(C(=O)c2ccccc2)cc1`: the IC50 came to 6.7 µM.

The next test in a line: Inhibition of […] in mouse 32Dbeta cells assessed as decrease in cell growth in presence of IL2 incubated for 30 mins followed by IL2 addition and measured after 2.5 days by alamar blue assay.
Take `Cn1c(Cc2nn(C)c(=O)c3ccccc23)nnc1SCC(=O)Nc1ccc(Cl)cc1Cl`: the concentration for half-maximal inhibition (IC50) is 21.1 µM.

On to `Cn1c(Cc2nn(C)c(=O)c3ccccc23)nnc1SCCCCCCCC(=O)Nc1ccc(Cl)cc1Cl`, for which the IC50 is 3.9 µM.

With `CCOC(CCn1c(Cc2nn(C)c(=O)c3ccccc23)nnc1SCC(=O)Nc1ccc(Cl)cc1Cl)OCC`, the IC50 is greater than 30 µM.

Regarding `Cn1nc(Cc2nnc(SCC(=O)Nc3ccc(Cl)cc3Cl)n2CCC=O)c2ccccc2c1=O`, the IC50 was 6.4 µM.

Take `Cn1nc(Cc2nnc(SCC(=O)Nc3ccc(Cl)cc3Cl)n2CCCO)c2ccccc2c1=O`: the IC50 is greater than 30 µM.

In the case of `Cn1nc(Cc2nnc(SCC(=O)Nc3ccc(Cl)cc3Cl)n2CCC(=O)O)c2ccccc2c1=O`, the IC50 is greater than 30 µM.

As for `Cn1c(Cc2nn(CCC3OCCO3)c(=O)c3ccccc23)nnc1SCC(=O)Nc1ccc(Cl)cc1Cl`, the IC50 was greater than 30 µM.

For `Cn1c(Cc2nn(CCC=O)c(=O)c3ccccc23)nnc1SCC(=O)Nc1ccc(Cl)cc1Cl`, the half-inhibitory concentration (IC50) was 30 µM.

Turning to `Cn1c(Cc2nn(CCCO)c(=O)c3ccccc23)nnc1SCC(=O)Nc1ccc(Cl)cc1Cl`, the IC50 is greater than 30 µM.

In the case of `Cn1c(Cc2nn(CCC(=O)O)c(=O)c3ccccc23)nnc1SCC(=O)Nc1ccc(Cl)cc1Cl`, the IC50 was greater than 30 µM.

For `CN(C)CCCn1nc(Cc2nnc(SCC(=O)Nc3ccc(Cl)cc3Cl)n2C)c2ccccc2c1=O`, the IC50 was determined as 16.7 µM.

Turning to `CCOC(CCn1c(Cc2nn(C)c(=O)c3ccccc23)nnc1SCCCCCCCC(=O)Nc1ccc(Cl)cc1Cl)OCC`, the IC50 was 16.4 µM.

On to `Cn1nc(Cc2nnc(SCCCCCCCC(=O)Nc3ccc(Cl)cc3Cl)n2CCC=O)c2ccccc2c1=O`, for which the IC50 amounted to 5.5 µM.

With `Cn1nc(Cc2nnc(SCCCCCCCC(=O)Nc3ccc(Cl)cc3Cl)[nH]2)c2ccccc2c1=O`, the IC50 turned out to be 3.5 µM.

Turning to `Cn1nc(Cc2nnc(SCCCCCCCC(=O)Nc3ccc(Cl)cc3Cl)n2CCCO[Si](C)(C)C(C)(C)C)c2ccccc2c1=O`, the IC50 is greater than 30 µM.

With `Cn1nc(Cc2nnc(SCCCCCCCC(=O)Nc3ccc(Cl)cc3Cl)n2CCCO)c2ccccc2c1=O`, the half-inhibitory concentration (IC50) was greater than 30 µM.

With `Cn1nc(Cc2nnc(SCCCCCCCC(=O)Nc3ccc(Cl)cc3Cl)n2CCC(=O)O)c2ccccc2c1=O`, the half-maximal inhibitory concentration (IC50) is greater than 30 µM.

`CN(C)CCCn1c(Cc2nn(C)c(=O)c3ccccc23)nnc1SCCCCCCCC(=O)Nc1ccc(Cl)cc1Cl`: the IC50 was 5.5 µM.

With `Cn1c(Cc2nn(CCCO[Si](C)(C)C(C)(C)C)c(=O)c3ccccc23)nnc1SCCCCCCCC(=O)Nc1ccc(Cl)cc1Cl`, the IC50 was greater than 30 µM.

For the molecule `Cn1c(Cc2nn(CCC=O)c(=O)c3ccccc23)nnc1SCCCCCCCC(=O)Nc1ccc(Cl)cc1Cl`, the half-maximal inhibitory concentration (IC50) was determined as 11.7 µM.

Regarding `Cn1c(Cc2nn(CCCO)c(=O)c3ccccc23)nnc1SCCCCCCCC(=O)Nc1ccc(Cl)cc1Cl`, the IC50 is greater than 30 µM.

As to `Cn1c(Cc2nn(CCC(=O)O)c(=O)c3ccccc23)nnc1SCCCCCCCC(=O)Nc1ccc(Cl)cc1Cl`, the IC50 was greater than 30 µM.

`CN(C)CCCn1nc(Cc2nnc(SCCCCCCCC(=O)Nc3ccc(Cl)cc3Cl)n2C)c2ccccc2c1=O`: the IC50 was 3.2 µM.

As to `Cn1c(Cc2n[nH]c(=O)c3ccccc23)nnc1SCCCCCCCC(=O)Nc1ccc(Cl)cc1Cl`, the IC50 is greater than 30 µM.

For `Cn1c(Cc2nn(C)c(=O)c3ccccc23)nnc1SCCCCCCCC(=O)Nc1ccc(C(=O)c2ccccc2)cc1`, the IC50 is 20.6 µM.
